Assay results from US20260217701A1, “SELECTIVE BET INHIBITORS AND USES THEREOF” (Tay Therapeutics Limited, priority 2022, published 2026).
Several values for one entry are separate records, joined by “and”; a condition that tells them apart may be missing. Identical values can stand only once.

Test: Dog PK study #3 (Compound A PO once daily 5 days, 5/10/20 mg/kg; PK, body weight, hematology)
Type: in vivo, beagle dogs
Set-up: Plasma Concentration: unit not given here
Protocol: For the third dog pharmacokinetic study, three solutions of different concentrations of Compound A were prepared in 5% DMSO/15% PEG-400/80% (10% VE-TPGS) as outlined in Table 2E. The Compound A solutions were administered to animals orally (PO) once daily over a five-day period. Body weight was recorded prior to dosing, and detailed clinical observations were made prior to dosing and throughout the study, as needed.
Animals were divided into Day 1 and Day 5 sample collection groups, with animals in the Day 1 collection group having blood samples taken prior to dosing and at 0.25, 0.5, 1, 2, 4, 8, and 24 hours after dosing on day 1. Animals in the Day 5 collection group having blood samples taken prior to dosing and at 0.25, 0.5, 1, 2, 4, 8, and 24 hours after dosing on day 5. Study groups are outlined in Table 3D.
Blood samples (~0.3 mL) were collected on day according to the following schedule (0.25, 0.5, 1, 2, 4, 8, and 24 h) after day 5 administration of Compound A by venipuncture of peripheral veins except for the dosing vein, and EDTA-K2 was used as anticoagulant. Within 30 minutes of collection, the samples were centrifuged at approximately 2000 times g-force for 10 minutes at 4° C. to obtain blood plasma. The plasma samples were immediately divided into two aliquots (~75 μL each), transferred to a cryogenic vial, and stored in a freezer at −75±15° C. prior to analysis.
The concentration of Compound A in the blood plasma was determined through LC-MS as previously described. Briefly, the experiments were conducted on a DMPK-LCMS-14-SMBA Triple Quad 6500 Plus instrument with an ACQUITY UPLC BEH C18 1.7 μm (50×2.1 mm) column. The matrix was male beagle dog plasma potassium (K2) EDTA A gradient of 95% water (0.1% formic acid and 2 mM HCOONH4)/95% acetonitrile (0.1% formic acid and 2 mM HCOONH4) was used as the mobile phase. The sample flow rate was 0.6 mL/min.
The samples were then vortex-mixed for 10 minutes at 800 rpm and centrifuged for 15 minutes at 3220×g at 4° C. 50 μL aliquots of supernatant were transferred to a clean 96-well plate and centrifuged for 5 minutes at 3220×g at 4° C. Samples were then injected into the LC/MS/MS system for quantitative analysis.
The gathered data were used for pharmacokinetic calculations using T1/2, CO, AUClast, AUCinf, MRTinf, Cl, Vss, and Number of Points for Regression as parameters.
The cell composition (hematology) of blood samples was analyzed at day 5. Analyses identified the total number of white blood cells, neutrophils, lymphocytes, monocytes, eosinophils, basophils, and platelets in collected samples.

[1] = Day 1, 20 mg/kg dose PO, individual animals
[2] = Day 1, Group 1, individual animals
[3] = Day 1, Group 2, individual animals
[4] = Day 1, Group 3, individual animals
[5] = Day 2, Group 1, individual animals
[6] = Day 2, Group 2, individual animals
[7] = Day 2, Group 3, individual animals
[8] = Day 3, Group 1, individual animals
[9] = Day 3, Group 2, individual animals
[10] = Day 3, Group 3, individual animals
[11] = Day 4, Group 1, individual animals
[12] = Day 4, Group 2, individual animals
[13] = Day 4, Group 3, individual animals
[14] = Day 5, 5 mg/kg dose PO, individual animals

Structure (SMILES): Cn1cc(-c2ccccc2)c(-c2cn(C)c(=O)c3[nH]c(-c4cnn(C(F)(F)F)c4)cc23)cc1=O [Compound A, 6-methyl-4-(1-methyl-2-oxo-5-phenyl-1,2-dihydropyridin-4-yl)-2-(1-(trifluoromethyl)-1H-pyrazol-4-yl)-1,6-dihydro-7H-pyrrolo[2,3-c]pyridin-7-one]
- Cmax [1]: 6 µg/mL
- MRT0-inf [1]: 18.1 h
- MRT0-last [1]: 10.1 h
- Tlast [1]: 24.0 h
- T½ [1]: 5.64 h and 11.7 h
- Vz_F [1]: 3.09 L/kg and 2.89 L/kg
- AUC0-last (Day 1, 20 mg/kg dose PO, mean): 67.852 µg·h/mL
- AUCExtra (Day 1, 20 mg/kg dose PO, mean): 16.1%
- AUMCExtra (Day 1, 20 mg/kg dose PO, mean): 39.6%
- Cl_F (Day 1, 20 mg/kg dose PO, mean): 0.275 L/h/kg
- Tlast (Day 1, 20 mg/kg dose PO, mean): 24.0 h
- Vz_F (Day 1, 20 mg/kg dose PO, mean): 2.99 L/kg
- Animal body weight [2]: 8.38 kg and 8.88 kg
- Clinical Observation [2]: None
- Animal Body Weight, Mean (Day 1, Group 1, mean): 8.63 kg
- Animal body weight [3]: 8.36 kg and 9.37 kg
- Clinical Observation [3]: None
- Animal Body Weight, Mean (Day 1, Group 2, mean): 8.87 kg
- Animal body weight [4]: 9.24 kg and 8.79 kg
- Clinical Observation [4]: None
- Animal Body Weight, Mean (Day 1, Group 3, mean): 9.02 kg
- Animal body weight [5]: 8.44 kg and 9.33 kg
- Clinical Observation [5]: None
- Animal Body Weight, Mean (Day 2, Group 1, mean): 8.89 kg
- Animal body weight [6]: 9.63 kg and 8.65 kg
- Clinical Observation [6]: None
- Animal Body Weight, Mean (Day 2, Group 2, mean): 9.14 kg
- Animal body weight [7]: 9.44 kg and 9.25 kg
- Clinical Observation [7]: None
- Animal Body Weight, Mean (Day 2, Group 3, mean): 9.35 kg
- Animal body weight [8]: 8.45 kg and 9.29 kg
- Clinical Observation [8]: None
- Animal Body Weight, Mean (Day 3, Group 1, mean): 8.87 kg
- Animal body weight [9]: 9.5 kg and 8.69 kg
- Clinical Observation [9]: None
- Animal Body Weight, Mean (Day 3, Group 2, mean): 9.10 kg
- Animal body weight [10]: 9.32 kg and 8.96 kg
- Clinical Observation [10]: None
- Animal Body Weight, Mean (Day 3, Group 3, mean): 9.14 kg
- Animal body weight [11]: 8.45 kg and 9.29 kg
- Clinical Observation [11]: None
- Animal Body Weight, Mean (Day 4, Group 1, mean): 8.87 kg
- Animal body weight [12]: 9.43 kg and 8.6 kg
- Clinical Observation [12]: None
- Animal Body Weight, Mean (Day 4, Group 2, mean): 9.02 kg
- Animal body weight [13]: 9.13 kg and 8.6 kg
- Clinical Observation [13]: None
- Animal Body Weight, Mean (Day 4, Group 3, mean): 8.87 kg
- Plasma Concentration (Day 5, 5 mg/kg dose PO, time 1, individual animals): 1120 and 910
- Plasma Concentration (Day 5, 5 mg/kg dose PO, time 1, mean): 1015
- Plasma Concentration (Day 5, 5 mg/kg dose PO, time 2, individual animals): 1270 and 1040
- Plasma Concentration (Day 5, 5 mg/kg dose PO, time 2, mean): 1155
- Plasma Concentration (Day 5, 5 mg/kg dose PO, time 4, individual animals): 1180 and 878
- Plasma Concentration (Day 5, 5 mg/kg dose PO, time 4, mean): 1029
- Plasma Concentration (Day 5, 5 mg/kg dose PO, time 8, individual animals): 823 and 650
- Plasma Concentration (Day 5, 5 mg/kg dose PO, time 8, mean): 737
- Plasma Concentration (Day 5, 5 mg/kg dose PO, time 24, individual animals): 400
- AUC0-last [14]: 11.297 µg·h/mL
- AUC(0-inf) [14]: 25.554 µg·h/mL and 12.279 µg·h/mL
- AUCExtra [14]: 30.4% and 8.00%
- AUMCExtra [14]: 65.9% and 26.4%
- Cl_F [14]: 0.196 L/h/kg and 0.407 L/h/kg
- Cmax [14]: 1.04 µg/mL
- MRT0-last [14]: 8.08 h
- Tlast [14]: 24.0 h
- T½ [14]: 13.5 h and 6.42 h
- Vz_F [14]: 3.82 L/kg and 3.77 L/kg
- AUC0-last (Day 5, 5 mg/kg dose PO, mean): 14.544 µg·h/mL
- AUCExtra (Day 5, 5 mg/kg dose PO, mean): 19.2%
- AUMCExtra (Day 5, 5 mg/kg dose PO, mean): 46.2%
- Cl_F (Day 5, 5 mg/kg dose PO, mean): 0.301 L/h/kg
- Tlast (Day 5, 5 mg/kg dose PO, mean): 24.0 h
- Vz_F (Day 5, 5 mg/kg dose PO, mean): 3.79 L/kg
- Basophils (Day 5, 5 mg/kg/day (mean), range 0.00-0.19): 0.08 10^3/μL
- Eosinophils (Day 5, 5 mg/kg/day (mean), range 0.00-1.24): 0.38 10^3/μL
- Monocytes (Day 5, 5 mg/kg/day (mean), range 0.11-1.08): 0.31 10^3/μL
- Lymphocytes (Day 5, 5 mg/kg/day (mean), range 1.42-3.76): 2.72 10^3/μL
